Assay results as given in ChEMBL document CHEMBL1146011, “Diaryl substituted pyrrolidinones and pyrrolones as 5-HT2C inhibitors: synthesis and biological evaluation” (Bioorg Med Chem Lett, 2006).
pKi: −log10 of the molar value.

Experiments:
[1] = biological target: T1, 5-hydroxytryptamine receptor 2C (Homo sapiens, UniProt P28335); assay: Binding affinity to human 5HT2C receptor
T1 sequence (P28335 whole entry): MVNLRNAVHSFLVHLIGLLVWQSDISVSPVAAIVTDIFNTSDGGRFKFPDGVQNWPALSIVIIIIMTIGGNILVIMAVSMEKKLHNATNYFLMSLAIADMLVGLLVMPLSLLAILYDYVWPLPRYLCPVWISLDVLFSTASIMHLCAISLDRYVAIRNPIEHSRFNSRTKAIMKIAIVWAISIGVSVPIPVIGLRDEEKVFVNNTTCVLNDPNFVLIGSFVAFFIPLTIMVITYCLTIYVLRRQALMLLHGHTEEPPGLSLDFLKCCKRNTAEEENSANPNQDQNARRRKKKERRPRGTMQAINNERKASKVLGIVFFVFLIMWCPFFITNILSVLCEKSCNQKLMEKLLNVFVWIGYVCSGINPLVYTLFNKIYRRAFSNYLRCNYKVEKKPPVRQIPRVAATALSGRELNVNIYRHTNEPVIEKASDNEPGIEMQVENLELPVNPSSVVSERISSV

[2] = biological target: 5-hydroxytryptamine receptor 2A (Homo sapiens, UniProt P28223); assay: Binding affinity to human 5HT2A receptor
[3] = biological target: 5-hydroxytryptamine receptor 2B (Homo sapiens, UniProt P41595); assay: Binding affinity to human 5HT2B receptor
[4] = Plasma clearance in orally dosed rat; format: ADME, organism-based; details: po
[5] = Bioavailability in orally dosed rat; format: ADME, organism-based; details: in vivo, po
[6] = Ratio of drug level in brain against plasma in orally dosed rat; format: ADME, organism-based; details: po, read-out: BPR
Rattus norvegicus [7] = assay: Volume of distribution in orally dosed rat; format: ADME, organism-based; details: in vivo, po
[8] = Half life in orally dosed rat; format: ADME, organism-based; details: in vivo, po
Rattus norvegicus [9] = assay: Drug level in orally dosed rat brain; format: ADME, organism-based; details: in vivo, po

Sequence of 5-hydroxytryptamine receptor 2B (P41595 whole entry): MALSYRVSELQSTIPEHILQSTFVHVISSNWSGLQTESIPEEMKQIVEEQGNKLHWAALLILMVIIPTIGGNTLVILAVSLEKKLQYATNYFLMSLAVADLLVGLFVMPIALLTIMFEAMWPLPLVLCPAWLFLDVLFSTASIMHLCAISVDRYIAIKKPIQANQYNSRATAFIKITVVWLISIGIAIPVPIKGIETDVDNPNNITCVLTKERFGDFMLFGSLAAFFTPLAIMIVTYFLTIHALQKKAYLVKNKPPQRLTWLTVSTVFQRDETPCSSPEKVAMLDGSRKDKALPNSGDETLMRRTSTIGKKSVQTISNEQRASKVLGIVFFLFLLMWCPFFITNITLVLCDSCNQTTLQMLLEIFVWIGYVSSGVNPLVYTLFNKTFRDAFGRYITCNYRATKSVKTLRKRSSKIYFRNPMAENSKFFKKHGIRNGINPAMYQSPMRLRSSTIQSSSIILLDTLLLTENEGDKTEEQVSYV
Sequence of 5-hydroxytryptamine receptor 2A (P28223 whole entry): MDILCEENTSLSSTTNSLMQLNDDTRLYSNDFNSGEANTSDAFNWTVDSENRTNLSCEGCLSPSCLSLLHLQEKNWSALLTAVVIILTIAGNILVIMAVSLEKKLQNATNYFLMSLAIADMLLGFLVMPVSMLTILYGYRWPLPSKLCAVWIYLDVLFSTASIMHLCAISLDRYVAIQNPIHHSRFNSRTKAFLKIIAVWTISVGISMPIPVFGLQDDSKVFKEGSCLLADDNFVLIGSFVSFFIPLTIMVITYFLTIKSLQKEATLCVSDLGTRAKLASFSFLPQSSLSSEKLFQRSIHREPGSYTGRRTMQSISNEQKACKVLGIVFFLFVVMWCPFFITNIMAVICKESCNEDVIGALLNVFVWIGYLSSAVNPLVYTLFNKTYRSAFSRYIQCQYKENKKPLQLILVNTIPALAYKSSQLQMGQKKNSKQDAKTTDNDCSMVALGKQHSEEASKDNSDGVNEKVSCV

Compound | pKi [1] | pKi [2] | pKi [3] | further results
COc1ccc(N2CCC(c3cccc(Cl)c3)C2=O)cc1OCCN1CCCCC1 (stereo not drawn) | 7.60 | < 6.00 | < 6.00 | 
CC(=O)Nc1ccc(N2CCC(c3ccc(Cl)c(Cl)c3)C2=O)cc1OCCN1CCCCC1 (stereo not drawn) | 6.50 | < 5.50 | < 5.80 | 
COc1ccc(N2CCC(c3ccc(Cl)c(Cl)c3)C2=O)cc1OCCN1CCC(C)(C)CC1 (stereo not drawn) | 7.90 | 6.40 | < 6.00 | 
COc1ccc(N2CCC(c3ccc(OC)c(OCCN4CCCCC4)c3)C2=O)cc1Cl (stereo not drawn) | 7.70 | < 5.70 | 5.80 | 
COc1ccc(N2CCC(c3ccc(OC)c(OCCN4CCCCC4)c3)C2=O)cc1F (stereo not drawn) | 7.80 | < 6.00 | < 5.80 | 
COc1ccc(C2CCN(c3cccc(F)c3)C2=O)cc1OCCN1CCCCC1 (stereo not drawn) | 7.70 | < 5.90 | < 6.10 | 
COc1ccc(N2CC=C(c3ccc(Br)cc3)C2=O)cc1OCCN1CCC(C)CC1 | 8.40 | 6.40 |  | Log Ki [3]: > -6.2
COc1ccc(N2CC=C(c3ccc(C)cc3)C2=O)cc1OCCN1CCC(C)CC1 | 8.80 | 6.20 | 5.80 | 
COc1ccc(N2CC=C(c3ccc(F)cc3)C2=O)cc1OCCN1CCC(C)CC1 | 8.50 | 6.60 | 5.90 | 
O=C1C(c2ccc(Cl)c(Cl)c2)=CCN1c1ccc(OC(F)(F)F)c(OCCN2CCCCC2)c1 | < 5.90 | < 5.00 | < 5.50 | 
COc1ccc(N2CCC(C)(c3ccc(Cl)c(Cl)c3)C2=O)cc1OCCN1CCC(C)CC1 (stereo not drawn) | 8.30 |  | < 6.10 | CL/F [4]: 20 mL/min/kg; bioavailability [5]: 50%; Kp [6]: 1.8; Log Ki [2]: > -6.3
O=C1C(c2ccc(Cl)c(Cl)c2)CCN1c1ccc(OC(F)(F)F)c(OCCN2CCCCC2)c1 (stereo not drawn) | 6.10 | 5.50 | 5.80 | 
COc1ccc(C2(C)CCN(c3ccc(Cl)c(Cl)c3)C2=O)cc1OCCN1CCCCC1 (stereo not drawn) | 8.00 | 6.30 |  | Log Ki [3]: > -6.3
COc1ccc(N2CCC(c3ccc(OC)c(OCCN4CCCCC4)c3)C2=O)cc1 (stereo not drawn) | 7.00 | < 5.00 | < 5.00 | 
O=C1C(c2ccc(Cl)c(Cl)c2)CCN1c1ccc(Cl)c(OCCN2CCCCC2)c1 (stereo not drawn) | 7.00 | < 6.00 | < 5.80 | 
COc1ccc(N2CCC(c3ccc(Cl)c(Cl)c3)C2=O)cc1OCCN1CCC(C)CC1 (stereo not drawn) | 7.90 | 6.40 | 5.70 | 
Cc1ccc(N2CCC(c3ccc(Cl)c(Cl)c3)C2=O)cc1OCCN1CCCCC1 (stereo not drawn) | 6.40 | < 5.80 | < 5.80 | 
COc1ccc(N2CCC(c3ccc(F)cc3)C2=O)cc1OCCN1CCCCC1 (stereo not drawn) | 7.00 | < 5.60 | < 5.30 | 
COc1ccc(N2CC=C(c3ccc(C(F)(F)F)cc3)C2=O)cc1OCCN1CCC(C)CC1 | 7.90 | 5.80 | < 5.00 | 
COc1ccc(N2CCC(c3cccc(F)c3)C2=O)cc1OCCN1CCCCC1 (stereo not drawn) | 7.00 | < 5.10 | < 5.80 | 
COc1ccc(N2CCC(c3ccc(Cl)c(Cl)c3)C2=O)cc1OCCN1CCC(C(C)C)CC1 (stereo not drawn) | 7.60 | 6.40 | < 6.00 | 

Now from value to compound, other results behind:

pKi [1] | pKi [2] | pKi [3] | Compound | further results
6.90 | < 5.90 | < 5.70 | Cc1ccc(N2CC=C(c3ccc(Cl)c(Cl)c3)C2=O)cc1OCCN1CCCCC1 | 
8.30 | 5.90 | 6.90 | COc1ccc(C2=CCN(c3ccc(Cl)c(Cl)c3)C2=O)cc1OCCN1CCCCC1 | 
7.90 | < 6.10 | < 6.00 | COc1ccc(N2CC=C(c3ccc(Cl)c(Cl)c3)C2=O)cc1OCCN1CCC(C(C)C)CC1 | 
8.60 | 6.20 | 6.20 | COc1ccc(N2CC=C(c3cccc(Cl)c3)C2=O)cc1OCCN1CCCCC1 | 
7.90 | 6.30 | 5.80 | COc1ccc(N2CCC(c3ccc(Cl)c(Cl)c3)C2=O)cc1OCCN1CCCCC1 (stereo not drawn) | 
8.20 | < 5.50 | < 5.80 | COc1ccc(N2CC=C(c3ccc(OC)c(OCCN4CCCCC4)c3)C2=O)cc1F | 
8.10 | 6.00 | < 5.80 | COc1ccc(N2CC=C(c3ccc(Cl)cc3)C2=O)cc1OCCN1CCCCC1 | 
8.00 | < 5.30 | < 5.70 | COc1ccc(N2CC=C(c3ccc(OC)c(OCCN4CCCCC4)c3)C2=O)cc1 | 
8.40 | < 5.20 | 6.50 | COc1ccc(N2CC=C(c3ccc(Cl)c(Cl)c3)C2=O)cc1OCCN1CCC(C)(C)CC1 | 
7.90 | < 5.90 | < 6.00 | COc1ccc(N2CC=C(c3ccc(C(F)(F)F)cc3)C2=O)cc1OCCN1CCCCC1 | 
8.30 | 6.10 | 6.30 | COc1ccc(N2CC=C(c3cccc(Cl)c3)C2=O)cc1OCCN1CCC(C)CC1 | 
8.30 | < 5.20 |  | COc1ccc(N2CC=C(c3ccc(OC)c(OCCN4CCCCC4)c3)C2=O)cc1Cl | Log Ki [3]: > -6.4
8.20 | 5.40 | < 5.80 | COc1ccc(N2CC=C(c3ccc(Cl)c(Cl)c3)C2=O)cc1OCCN1CCOCC1 | 
8.30 | 6.10 | < 6.10 | COc1ccc(N2CC=C(c3cccc(C(F)(F)F)c3)C2=O)cc1OCCN1CCCCC1 | 
8.10 | < 5.30 | < 5.30 | COc1ccc(N2CC=C(c3ccc(Cl)c(Cl)c3)C2=O)cc1OCCN1CCC(F)(F)CC1 | 
6.70 | 6.40 | 6.30 | COc1ccc(C2=C(C)CN(c3ccc(Cl)cc3)C2=O)cc1OCCN1CCCCC1 | 

pKi [1] | pKi [2] | pKi [3] | Compound | further results
8.20 | 6.00 | 6.30 | COc1ccc(C2=CCN(c3cccc(F)c3)C2=O)cc1OCCN1CCCCC1 | 
8.50 | 6.10 | < 6.10 | COc1ccc(N2CC=C(c3ccc(Cl)c(Cl)c3)C2=O)cc1OCCN1CCC(C)CC1 | CL/F [4]: 11 mL/min/kg; Vdss (Rattus norvegicus [7]): 4 L; half-life [8]: 4.5 h; bioavailability [5]: 52%; Kp [6]: 7.2; Drug uptake (Rattus norvegicus [9]): 1058 ng/g
6.70 | < 5.90 | < 5.00 | O=C1C(c2ccc(Cl)c(Cl)c2)=CCN1c1ccc(N2CCCC2)c(OCCN2CCCCC2)c1 | 
8.20 | 6.20 | < 5.80 | COc1ccc(N2CC=C(c3ccc(Cl)cc3)C2=O)cc1OCCN1CCC(C)CC1 | 
6.90 | 6.30 | 6.70 | COc1ccc(C2=C(C)CN(c3ccc(Cl)c(Cl)c3)C2=O)cc1OCCN1CCCCC1 | 
8.30 | 6.20 | 6.00 | COc1ccc(N2CCC(C)(c3ccc(Cl)c(Cl)c3)C2=O)cc1OCCN1CCCCC1 (stereo not drawn) | CL/F [4]: 65 mL/min/kg; bioavailability [5]: 13%; Kp [6]: 5
7.30 | < 5.80 | < 5.80 | CC(=O)Nc1ccc(N2CC=C(c3ccc(Cl)c(Cl)c3)C2=O)cc1OCCN1CCCCC1 | 
8.40 | 6.20 | < 5.80 | COc1ccc(N2CC=C(c3ccc(Cl)c(Cl)c3)C2=O)cc1OCCN1CCCC1 | 
7.20 | < 5.90 | < 5.80 | O=C1C(c2ccc(Cl)c(Cl)c2)=CCN1c1ccc(Cl)c(OCCN2CCCCC2)c1 | 
8.90 | 6.80 | 6.70 | COc1ccc(N2CC=C(c3ccc(Br)cc3)C2=O)cc1OCCN1CCCCC1 | 
8.00 | 6.10 | 6.40 | COc1ccc(C2CCN(c3ccc(Cl)c(Cl)c3)C2=O)cc1OCCN1CCCCC1 (stereo not drawn) | 
9.10 | 6.20 | 6.30 | COc1ccc(N2CC=C(c3cccc(F)c3)C2=O)cc1OCCN1CCCCC1 | 
8.20 | 6.40 | 6.00 | COc1ccc(N2CC=C(c3ccc(F)cc3)C2=O)cc1OCCN1CCCCC1 | 
8.10 | < 5.90 | < 5.70 | COc1ccc(N2CC=C(c3ccc(Cl)c(F)c3)C2=O)cc1OCCN1CCC(C)CC1 | 
9.50 | < 6.00 | < 6.00 | COc1ccc(N2CC=C(c3ccc(C)cc3)C2=O)cc1OCCN1CCCCC1 | 
